Data: patent US20100041597A1, “PEPTIDES TARGETED TO PROTEIN KINASE C ISOFORMS AND USES THEREOF” (priority 2005, published 2010)
Values belong to the substance of their own block, whether it stands above or below them.

What was measured:
[1] = system: IMR-32 neuroblastoma cells; assay: In vitro toxicity test (fluorimetric DNA assay, Hoechst); format: cell-based, human
Procedure: (§1) In vitro cytotoxicity testing of the peptides PRE 3, PRE 4 and PRE 5 (see Table 3) was conducted following the general protocol outlined below (modified from “Fluorimetric DNA assay for cell growth estimation” Rao J, Otto W., Analytical Biochem. 207:186-192, 1992).
(§2) The assay was performed in 96 well plates, with 3,000 IMR-32 neuroblastoma cells seeded per well and 8 replicas were performed per treatment. The cells were pre-treated with either plain medium and a pinocytic endocytosis reagent (Molecular Probes) or medium containing the PRE under evaluation and the pinocytic endocytosis reagent. The cells were allowed to grow under conventional conditions for 3 days. The DNA content of each well was assessed at 24, 48 and 72 hours using Hoechst reagent according to standard procedures. The fluorescence intensity per well was measured using the plate reader “CytoFluor 2350” from Millipore. Excitation was 360 nm and emission was 460 nm. The number of cells is directly correlated to the DNA content.
(§3) The results are shown in Tables 11-13 as the average relative fluorescence intensity measured for the 8 replica wells, as well as the percentage of survival as compared with matching untreated controls.

[2] = as above; format: cell-based, human; details: human, IMR-32 neuroblastoma cells, read-out: % survival
Procedure: as §1, §2, §3

PKC-α [3] = target: T1, PKC-α (Homo sapiens, UniProt P17252); assay: Subcellular localisation of PKC-α in IMR-32 cells; format: cell-based; parameters: subcellular localisation of endogenous PKC-α in IMR-32 cells; endogenous in cells; host or cells: IMR-32; details: 10 mg/ml, pinocytic endocytosis
Procedure: Peptides PRE 3 or PRE 4 (10 mg/ml) were introduced into human neuroblastoma cells (IMR-32) by pinocytic endocytosis. The cells were fixed and stained with rabbit PKC-A primary antibody and anti-rabbit Alexa-488 or Alexa-800 secondary antibody.
In most of the cells PKC-α can be seen to be located in the cytoplasm, around the nucleus and at the plasma membrane (where it becomes activated).

PKC-βII = PKC-βII (Homo sapiens, UniProt P05771); assay: In vitro competition with anti-PKC-βII antibody, Protocol B, IMR-32 cells; format: binding; parameters: PRE 3 and PRE 4 in IMR-32 Neuroblastoma Cells: Protocol B; endogenous in cells; host or cells: IMR-32; details: for Band Intensity: control band intensity 98.6, Table 9
Chain of PKC-βII (P05771 1-673 isoform P05771-2): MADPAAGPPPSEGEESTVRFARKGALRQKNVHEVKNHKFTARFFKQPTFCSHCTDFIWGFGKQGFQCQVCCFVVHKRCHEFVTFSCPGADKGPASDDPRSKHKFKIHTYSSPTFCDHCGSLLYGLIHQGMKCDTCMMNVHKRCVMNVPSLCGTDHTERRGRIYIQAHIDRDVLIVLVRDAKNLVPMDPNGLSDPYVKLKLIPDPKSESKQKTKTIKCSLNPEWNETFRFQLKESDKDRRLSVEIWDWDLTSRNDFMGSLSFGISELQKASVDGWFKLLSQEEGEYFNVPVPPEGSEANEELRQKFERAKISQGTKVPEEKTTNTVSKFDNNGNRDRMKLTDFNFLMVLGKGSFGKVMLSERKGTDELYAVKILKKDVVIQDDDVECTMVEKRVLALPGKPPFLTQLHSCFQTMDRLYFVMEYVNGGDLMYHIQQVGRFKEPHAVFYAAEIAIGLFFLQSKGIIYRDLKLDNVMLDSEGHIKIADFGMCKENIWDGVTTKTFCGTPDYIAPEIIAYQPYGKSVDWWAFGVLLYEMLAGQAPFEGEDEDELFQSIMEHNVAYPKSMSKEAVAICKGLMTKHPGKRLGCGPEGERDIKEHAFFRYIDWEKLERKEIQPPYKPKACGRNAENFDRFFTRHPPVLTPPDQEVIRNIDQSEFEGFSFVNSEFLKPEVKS
Procedure: (§4) Peptides PRE 3 and PRE 4 (see Table 3) were tested for their ability to interfere with the binding of isoform-specific polyclonal antibodies (Santa Cruz Biotechnology, Inc.) to PKC-α, PKC-βI or PKC-βII using the general protocol described in Example 3.

PKC-α [4] = target: T1, PKC-α; assay: In vitro competition with anti-PKC-α antibody, Protocol B (peptide added to cell extract before electrophoresis), IMR-32 cells; format: binding; parameters: subcellular localisation of endogenous PKC-α in IMR-32 cells; endogenous in cells; host or cells: IMR-32; details: PKC-α; for Band Intensity: control band intensity 302.5, Table 9
Procedure: as §4

PKC-β = assay: In vitro competition with anti-PKC-β antibody, Protocol A, IMR-32 cells; format: binding, human; details: for Band Intensity / Inhibition (%) / Relative Intensity (%): PKC-β, IMR-32, Table 6
Procedure: Cell lysates from either IMR-32 (human neuroblastoma) cells or C6Cx43 cells (rat glioma transfected cells overexpressing connexin 43) were obtained using standard protocols and the proteins of the lysate were separated by SDS PAGE electrophoresis and electrotransferred onto a nitrocellulose membrane. The membrane was incubated for 30 minutes in blocking buffer (TBST) containing the test peptide at either 5× or 20× the concentrations of the primary antibody. A primary polyclonal antibody specific for PKC-α (Santa Cruz Biotechnology, Inc., CA) was then added (15 μg/ml) and the membrane incubated for a further 45 minutes. Finally, the primary antibody was detected with a secondary antibody conjugated to alkaline phosphatase using standard procedures. The intensity of the band corresponding to PKC-α was assessed by scanning and densitometry using the Gel-Pro software (Media Cybernetics) to obtain relative band intensities (average of 3 replicas). Control assays were conducted as described above except that blocking buffer without peptide was used.
Peptides PRE 1, PRE 2 and PRE 3 (see Table 3) were tested for their ability to interfere with the binding of a PKC-β-specific polyclonal antibody (Santa Cruz Biotechnology, Inc.) to PKC-β using the general protocol described in Example 1. […] It is worth noting in this regard that PKC-α and PKC-β belong to the same sub-group of PKCs (cPKCs).

[5] = 2.5 mg/ml, 24 h, with pinocytic endocytosis reagent
[6] = 2.5 mg/ml, 48 h, with pinocytic endocytosis reagent
[7] = 2.5 mg/ml, 72 h, with pinocytic endocytosis reagent
[8] = 10 mg/ml, 24 h, with pinocytic endocytosis reagent
[9] = 10 mg/ml, 48 h, with pinocytic endocytosis reagent
[10] = 10 mg/ml, 72 h, with pinocytic endocytosis reagent

Substance: Ac-AKGIQEVKGGKDAQNLIGISI-NH2 [PRE 5]
AFI (Average fluorescence intensity) ([1]; 62.5 μg/ml, 24 h, 3000 cells/100 μl/well, Table 13): 717 | AFI (Average fluorescence intensity) ([1]; 62.5 μg/ml, 48 h, Table 13): 1084 | AFI (Average fluorescence intensity) ([1]; 62.5 μg/ml, 72 h, Table 13): 1290 | AFI (Average fluorescence intensity) ([1]; 125 μg/ml, 24 h, Table 13): 593 | AFI (Average fluorescence intensity) ([1]; 125 μg/ml, 48 h, Table 13): 991 | AFI (Average fluorescence intensity) ([1]; 125 μg/ml, 72 h, Table 13): 1200 | AFI (Average fluorescence intensity) ([1]; 250 μg/ml, 24 h, Table 13): 557 | AFI (Average fluorescence intensity) ([1]; 250 μg/ml, 48 h, Table 13): 899 | AFI (Average fluorescence intensity) ([1]; 250 μg/ml, 72 h, Table 13): 1150 | AFI (Average fluorescence intensity) ([1]; 500 μg/ml, 24 h, Table 13): 492 | AFI (Average fluorescence intensity) ([1]; 500 μg/ml, 48 h, Table 13): 891 | AFI (Average fluorescence intensity) ([1]; 500 μg/ml, 72 h, Table 13): 1082 | viability at 24 h, 62.5 µg/mL ([2]; 62.5 μg/ml, 24 h, Table 13): 113% | viability at 48 h, 62.5 µg/mL ([2]; 62.5 μg/ml, 48 h, Table 13): 117% | viability at 72 h, 62.5 µg/mL ([2]; 62.5 μg/ml, 72 h, Table 13): 100% | viability at 24 h, 125 µg/mL ([2]; 125 μg/ml, 24 h, Table 13): 94% | viability at 48 h, 125 µg/mL ([2]; 125 μg/ml, 48 h, Table 13): 107% | viability at 72 h, 125 µg/mL ([2]; 125 μg/ml, 72 h, Table 13): 93% | viability at 24 h, 250 µg/mL ([2]; 250 μg/ml, 24 h, Table 13): 88% | viability at 48 h, 250 µg/mL ([2]; 250 μg/ml, 48 h, Table 13): 97% | viability at 72 h, 250 µg/mL ([2]; 250 μg/ml, 72 h, Table 13): 89% | viability at 24 h, 500 µg/mL ([2]; 500 μg/ml, 24 h, Table 13): 78% | viability at 48 h, 500 µg/mL ([2]; 500 μg/ml, 48 h, Table 13): 96% | viability at 72 h, 500 µg/mL ([2]; 500 μg/ml, 72 h, Table 13): 84%

effect on antibody binding to PKC-βII (PKC-βII): some cross-reactivity | inhibition at 0.1 mg (PKC-βII; 100 μg, PKC-βII, Table 9): 29% | remaining activity at 0.1 mg (PKC-βII; 100 μg, PKC-βII, Table 9, read-out: Relative Intensity (%)): 69.5% | Band Intensity (PKC-βII; 100 μg, PKC-βII): 69.58 | inhibition at 0.2 mg (PKC-βII; 200 μg, PKC-βII, Table 9): 100% | remaining activity at 0.2 mg (PKC-βII; 200 μg, PKC-βII, Table 9, read-out: Relative Intensity (%)): 0% | Band Intensity (PKC-βII; 200 μg, PKC-βII): 0.0 | inhibition at 0.3 mg (PKC-βII; 300 μg, PKC-βII, Table 9): 100% | remaining activity at 0.3 mg (PKC-βII; 300 μg, PKC-βII, Table 9, read-out: Relative Intensity (%)): 0% | Band Intensity (PKC-βII; 300 μg, PKC-βII): 0.0 | inhibition at 0.1 mg (PKC-α [4]; 100 μg, Table 9): 89.4% | remaining activity at 0.1 mg (PKC-α [4]; 100 μg, Table 9, read-out: Relative Intensity (%)): 10.6% | Band Intensity (PKC-α [4]; 100 μg): 32.2 | inhibition at 0.2 mg (PKC-α [4]; 200 μg, Table 9): 99.5% | remaining activity at 0.2 mg (PKC-α [4]; 200 μg, Table 9, read-out: Relative Intensity (%)): 0.5% | Band Intensity (PKC-α [4]; 200 μg): 1.5 | inhibition at 0.3 mg (PKC-α [4]; 300 μg, Table 9): 100% | remaining activity at 0.3 mg (PKC-α [4]; 300 μg, Table 9, read-out: Relative Intensity (%)): 0% | Band Intensity (PKC-α [4]; 300 μg): 0.0
Substance: Ac-KDAQNLIGISI-NH2 [PRE 4, Ac-KDAQNLIGISI-NH2]
AFI (Average fluorescence intensity) [1, 5]: 179 | AFI (Average fluorescence intensity) [1, 6]: 240 | AFI (Average fluorescence intensity) [1, 7]: 777 | AFI (Average fluorescence intensity) [1, 8]: 173 | AFI (Average fluorescence intensity) [1, 9]: 247 | AFI (Average fluorescence intensity) [1, 10]: 809 | viability at 24 h, 2500 µg/mL [2, 5]: 106% | viability at 48 h, 2500 µg/mL [2, 6]: 99% | viability at 72 h, 2500 µg/mL [2, 7]: 110% | viability at 24 h, 10000 µg/mL [2, 8]: 103% | viability at 48 h, 10000 µg/mL [2, 9]: 101% | viability at 72 h, 10000 µg/mL [2, 10]: 115% | effect on subcellular localisation of PKC-α (PKC-α [3]): prevented translocation of PKC-α to the membrane

Substance: RRKKGGKDFVVKR [PRE 1]
effect on antibody binding to PKC-β (PKC-β): some cross reactivity | Band Intensity (PKC-β; 75 μg): 0.825 | Inhibition (%) (PKC-β; 75 μg): 28.9% | Relative Intensity (%) (PKC-β; 75 μg): 71.1% | Band Intensity (PKC-β; 300 μg): 0.528 | Inhibition (%) (PKC-β; 300 μg): 54.5% | Relative Intensity (%) (PKC-β; 300 μg): 45.5%
